Laboratory results: the supplement of paper PMC10627819

Tests used:
[1] = tested on: S. aureus DSM 20231; assay: fitness (endpoint OD595 vs no drug) (fraction); higher = more growth
Method in brief: (§1)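 Plates with 384 wells were inoculated at OD595 0.01 using 30 µl of TSB, LB Lennox or CY, or 55 µl for S. pneumoniae. Incubation was at 37 °C, with OD595 measured every 30 min for 14 h. Fitness is the stationary-phase transition optical density over the robust mean of no-drug control wells, after first-reading background subtraction; it is capped at 1.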

[2] = tested on: S. aureus Newman; assay: Bliss interaction score (quartile over a dose matrix) (fitness difference); higher = more antagonism (negative = synergy)
Method in brief: (§2)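 Values were capped at 1 after dividing OD595 at stationary-phase entry by the plate's robust no-drug mean. This ratio is fitness, and single-drug fitness was inferred from the combination data. The Bliss score is observed minus product-expected fitness, given as quartiles over technical, biological and donor/recipient replicates.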

[3] = tested on: S. aureus DSM 20231; assay: as above
Method in brief: as §2

[4] = tested on: S. pneumoniae D39V; assay: as above
Method in brief: as §2

[5] = tested on: B. subtilis 168; assay: as above
Method in brief: as §2

[6] = tested on: S. aureus Newman; assay: fitness (endpoint OD595 vs no drug) (fraction); higher = more growth
Method in brief: as §1

[7] = tested on: S. pneumoniae D39V; assay: as above
Method in brief: as §1

[8] = tested on: B. subtilis 168; assay: as above
Method in brief: as §1
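Wherever Bliss interaction score (quartile over a dose matrix) is given: first quartile when negative (synergy) and third quartile when positive (antagonism).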

O=C(N[C@H](CO)[C@H](O)c1ccc([N+](=O)[O-])cc1)C(Cl)Cl [Chloramphenicol] + CC(=O)NC[C@H]1CN(c2ccc(N3CCOCC3)c(F)c2)C(=O)O1 [Linezolid]
fitness, [1]
Settings	first compound 0.75 µg/mL	first compound 1.5 µg/mL	first compound 3 µg/mL
partner 0.125 µg/mL	0.609	0.321	0.11
partner 0.25 µg/mL	0.353	0.227	0.0855
partner 0.5 µg/mL	0.128	0.119	0.0711

[1], partner 1 µg/mL, one replicate
Settings	fitness
first compound 0.75 µg/mL	0.0506
first compound 1.5 µg/mL	0.0474
first compound 3 µg/mL	0.0396

Settings	Bliss interaction score
[2]	-0.112
[3]	-0.152
[4]	0.0462
[5]	-0.141

O=C(N[C@H](CO)[C@H](O)c1ccc([N+](=O)[O-])cc1)C(Cl)Cl [Chloramphenicol] + CCC[C@@H]1C[C@@H](C(=O)N[C@@H]([C@H]2O[C@H](SC)[C@H](O)[C@@H](O)[C@H]2O)[C@@H](C)O)N(C)C1 [Lincomycin]
fitness, [1]
Settings	first compound 0.75 µg/mL	first compound 1.5 µg/mL	first compound 3 µg/mL
partner 0.1 µg/mL	0.729	0.57	–
partner 0.2 µg/mL	0.563	0.378	–
partner 0.4 µg/mL	0.215	0.167	0.0709

Settings	Bliss interaction score
[2]	-0.167
[3]	0.0462
[4]	0.105
[5]	0.11

CCC[C@@H]1C[C@@H](C(=O)N[C@@H]([C@H]2O[C@H](SC)[C@H](O)[C@@H](O)[C@H]2O)[C@H](C)Cl)N(C)C1 [Clindamycin] + CC(C1CCC(C(O1)OC2C(CC(C(C2O)OC3C(C(C(CO3)(C)O)NC)O)N)N)N)NC [Gentamicin]
fitness, one replicate, main component drawn
Settings	first compound 0.0039 µg/mL	first compound 0.0078 µg/mL	first compound 0.0156 µg/mL	first compound 0.0312 µg/mL	first compound 0.0625 µg/mL	first compound 0.125 µg/mL
[6], partner 0.375 µg/mL	–	–	–	0.709	0.55	0.138
[6], partner 0.75 µg/mL	–	–	–	0.705	0.542	0.177
[6], partner 1.5 µg/mL	–	–	–	0.576	0.254	0.119
[8], partner 0.0625 µg/mL	0.962	0.911	0.828	–	–	–
[8], partner 0.125 µg/mL	0.995	0.938	0.839	–	–	–
[8], partner 0.25 µg/mL	0.94	0.867	0.791	–	–	–

main component drawn
Settings	fitness
[6], first compound 0.0312 µg/mL, partner 0.5 µg/mL	0.839
[6], first compound 0.0312 µg/mL, partner 2 µg/mL	0.988
[7], first compound 0.0125 µg/mL, partner 2 µg/mL	0.781
[7], first compound 0.0125 µg/mL, partner 4 µg/mL	0.812
[7], first compound 0.0125 µg/mL, partner 8 µg/mL	0.768
[7], first compound 0.015 µg/mL, partner 2 µg/mL	0.732
[7], first compound 0.015 µg/mL, partner 4 µg/mL	0.698
[7], first compound 0.015 µg/mL, partner 8 µg/mL	0.63
[7], first compound 0.025 µg/mL, partner 2 µg/mL	0.528
[7], first compound 0.025 µg/mL, partner 4 µg/mL	0.513
[7], first compound 0.025 µg/mL, partner 8 µg/mL	0.454
[7], first compound 0.03 µg/mL, partner 2 µg/mL	0.454
[7], first compound 0.03 µg/mL, partner 4 µg/mL	0.425
[7], first compound 0.03 µg/mL, partner 8 µg/mL	0.405
[7], first compound 0.05 µg/mL, partner 2 µg/mL	0.239
[7], first compound 0.05 µg/mL, partner 4 µg/mL	0.254
[7], first compound 0.05 µg/mL, partner 8 µg/mL	0.224
[7], first compound 0.06 µg/mL, partner 2 µg/mL	0.299
[7], first compound 0.06 µg/mL, partner 4 µg/mL	0.249
[7], first compound 0.06 µg/mL, partner 8 µg/mL	0.244
[8], first compound 0.0625 µg/mL, partner 0.0625 µg/mL	0.52
[8], first compound 0.125 µg/mL, partner 0.0625 µg/mL	0.397
[8], first compound 0.125 µg/mL, partner 0.25 µg/mL	0.0596
[8], first compound 0.25 µg/mL, partner 0.25 µg/mL	0.0604

main component drawn
Settings	Bliss interaction score
[2]	0.148
[3]	0.0691
[4]	-0.0694
[5]	0.192

CCC[C@@H]1C[C@@H](C(=O)N[C@@H]([C@H]2O[C@H](SC)[C@H](O)[C@@H](O)[C@H]2O)[C@H](C)Cl)N(C)C1 [Clindamycin] + CN(C)c1cc(NC(=O)CNC(C)(C)C)c(O)c2c1C[C@H]1C[C@H]3[C@H](N(C)C)C(O)=C(C(N)=O)C(=O)[C@@]3(O)C(O)=C1C2=O [Tigecycline]
Settings	fitness
[6], first compound 0.0312 µg/mL, partner 0.039 µg/mL	0.708
[6], first compound 0.0312 µg/mL, partner 0.078 µg/mL	0.715
[6], first compound 0.0312 µg/mL, partner 0.156 µg/mL	0.709
[6], first compound 0.125 µg/mL, partner 0.039 µg/mL	0.118
[6], first compound 0.125 µg/mL, partner 0.078 µg/mL	0.112
[6], first compound 0.125 µg/mL, partner 0.156 µg/mL	0.113
[7], first compound 0.0125 µg/mL, partner 0.325 µg/mL	0.668
[7], first compound 0.0125 µg/mL, partner 0.65 µg/mL	0.695
[7], first compound 0.0125 µg/mL, partner 1.3 µg/mL	0.652
[7], first compound 0.015 µg/mL, partner 0.65 µg/mL	0.753
[7], first compound 0.015 µg/mL, partner 1.3 µg/mL	0.755
[7], first compound 0.015 µg/mL, partner 2.6 µg/mL	0.815
[7], first compound 0.025 µg/mL, partner 0.325 µg/mL	0.503
[7], first compound 0.025 µg/mL, partner 0.65 µg/mL	0.461
[7], first compound 0.025 µg/mL, partner 1.3 µg/mL	0.442
[7], first compound 0.03 µg/mL, partner 0.65 µg/mL	0.653
[7], first compound 0.03 µg/mL, partner 1.3 µg/mL	0.66
[7], first compound 0.03 µg/mL, partner 2.6 µg/mL	0.673
[7], first compound 0.05 µg/mL, partner 0.325 µg/mL	0.233
[7], first compound 0.05 µg/mL, partner 0.65 µg/mL	0.2
[7], first compound 0.05 µg/mL, partner 1.3 µg/mL	0.189
[7], first compound 0.06 µg/mL, partner 0.65 µg/mL	0.551
[7], first compound 0.06 µg/mL, partner 1.3 µg/mL	0.557
[7], first compound 0.06 µg/mL, partner 2.6 µg/mL	0.539
[8], first compound 0.0625 µg/mL, partner 0.039 µg/mL	0.596
[8], first compound 0.0625 µg/mL, partner 0.078 µg/mL	0.537
[8], first compound 0.0625 µg/mL, partner 0.156 µg/mL	0.538
[8], first compound 0.125 µg/mL, partner 0.039 µg/mL	0.387
[8], first compound 0.125 µg/mL, partner 0.078 µg/mL	0.38
[8], first compound 0.125 µg/mL, partner 0.156 µg/mL	0.374
[8], first compound 0.25 µg/mL, partner 0.039 µg/mL	0.378
[8], first compound 0.25 µg/mL, partner 0.078 µg/mL	0.365
[8], first compound 0.25 µg/mL, partner 0.156 µg/mL	0.369

fitness, [8], one replicate
Settings	first compound 0.0039 µg/mL	first compound 0.0078 µg/mL	first compound 0.0156 µg/mL	first compound 0.0625 µg/mL	first compound 0.125 µg/mL	first compound 0.25 µg/mL
partner 0.039 µg/mL	0.986	0.866	0.862	–	–	–
partner 0.078 µg/mL	≥ 1	0.88	0.831	–	–	–
partner 0.125 µg/mL	–	–	–	0.809	0.656	0.44
partner 0.156 µg/mL	0.906	0.81	0.908	–	–	–
partner 0.25 µg/mL	–	–	–	0.722	0.575	0.342
partner 0.5 µg/mL	–	–	–	0.743	0.601	0.378

Settings	Bliss interaction score
[2]	-0.0653
[3]	-0.0949
[4]	-0.0934
[5]	-0.0489

CCC[C@@H]1C[C@@H](C(=O)N[C@@H]([C@H]2O[C@H](SC)[C@H](O)[C@@H](O)[C@H]2O)[C@H](C)Cl)N(C)C1 [Clindamycin] + CN[C@@H]1[C@H](O[C@H]2[C@H](O[C@H]3[C@H](O)[C@@H](O)[C@H](N=C(N)N)[C@@H](O)[C@@H]3N=C(N)N)O[C@@H](C)[C@]2(O)C=O)O[C@@H](CO)[C@H](O)[C@H]1O [Streptomycin]
fitness
Settings	partner 1 µg/mL	partner 2 µg/mL	partner 4 µg/mL	partner 8 µg/mL
[6], first compound 0.0312 µg/mL	0.679	0.571	–	–
[6], first compound 0.125 µg/mL	0.123	0.0638	0.0582	–
[7], first compound 0.0125 µg/mL	–	0.646	0.69	0.733
[7], first compound 0.015 µg/mL	–	–	0.837	0.786
[7], first compound 0.025 µg/mL	–	0.445	0.426	0.46
[7], first compound 0.03 µg/mL	–	–	0.71	0.646
[7], first compound 0.05 µg/mL	–	0.177	0.21	0.202
[7], first compound 0.06 µg/mL	–	–	0.586	0.544
[8], first compound 0.0625 µg/mL	–	0.531	0.082	0.0325
[8], first compound 0.125 µg/mL	–	0.398	0.0693	0.0279
[8], first compound 0.25 µg/mL	–	0.105	0.0596	0.0359

fitness, one replicate
Settings	first compound 0.0039 µg/mL	first compound 0.0078 µg/mL	first compound 0.015 µg/mL	first compound 0.0156 µg/mL	first compound 0.03 µg/mL	first compound 0.06 µg/mL
[7], partner 2 µg/mL	–	–	0.889	–	0.767	0.621
[7], partner 16 µg/mL	–	–	0.712	–	0.564	0.424
[8], partner 2 µg/mL	≥ 1	0.855	–	0.895	–	–
[8], partner 4 µg/mL	≥ 1	1	–	0.951	–	–
[8], partner 8 µg/mL	0.994	0.85	–	0.853	–	–

Settings	Bliss interaction score
[2]	-0.0908
[3]	-0.0299
[4]	-0.0581
[5]	-0.101

O=C(O[C@@H]1Cc2c(O)cc(O)cc2O[C@@H]1c1cc(O)c(O)c(O)c1)c1cc(O)c(O)c(O)c1 [EGCG] + CC(C1CCC(C(O1)OC2C(CC(C(C2O)OC3C(C(C(CO3)(C)O)NC)O)N)N)N)NC [Gentamicin]
fitness, [6], one replicate, main component drawn
Settings	first compound 12.5 µg/mL	first compound 25 µg/mL	first compound 50 µg/mL
partner 0.375 µg/mL	0.802	0.805	0.993
partner 0.75 µg/mL	0.773	0.762	0.62
partner 1.5 µg/mL	0.251	0.0762	0

fitness, main component drawn
Settings	first compound 6.25 µg/mL	first compound 12.5 µg/mL	first compound 25 µg/mL	first compound 50 µg/mL
[6], partner 0.5 µg/mL	–	0.738	0.69	0.584
[6], partner 1 µg/mL	–	0.795	0.754	0.704
[6], partner 2 µg/mL	–	0.797	0.766	0.709
[7], partner 2 µg/mL	–	0.922	0.947	0.913
[7], partner 4 µg/mL	–	0.947	≥ 1	0.989
[7], partner 8 µg/mL	–	0.936	0.945	0.942
[8], partner 0.0625 µg/mL	0.944	–	–	–
[8], partner 0.125 µg/mL	0.814	–	–	–
[8], partner 0.25 µg/mL	–	–	0.142	–

main component drawn
Settings	Bliss interaction score
[2]	-0.123
[3]	0.0682
[4]	0.09
[5]	0.329
